Measured values as given in US20230047816A1 (priority 2018, published 2023).

Assays:
[1] = test system: iPSC-derived neural precursor cells (NPC) from CLN7 patients; assay: Patient-derived neural precursor cells, ATP5A immunocytochemistry; format: cell-based, human
Experimental: iPSC were generated from two CLN7 patients (Pa380 and Pa474). then characterized and differentiated to NPC as previously described39. […]
NPCs were fixed with 100% iced-cold methanol for 5 min and incubated in blocking solution (1% (v/v) normal goat serum, 0.1% (w/v) bovine serum albumin (BSA), 0.1% (v/v) Triton X-100 in DPBS). […] Slides were mounted with VECTASHIELD Mounting Medium with DAPI, incubated for 24 h at 4° C. and imaged with a Zeiss Axio Imager M2 fluorescence microscope or under an inverted microscope (Nikon; Eclipse Ti-E) equipped with a pre-centred fibre illuminator (Nikon; Intensilight C-HGFI), B/W CCD digital camera (Hamamatsu; ORCA-E.R.). Fluorescence quantification was performed. after appropriate thresholding using the ImageJ software (NIH). The pixel intensity profile of ATP5A immunodecoration was analyzed across the maximal axis of the cell that departs from the nucleus, using the plot profile plugin of ImageJ software. […]

Cln7Δex2 mice = assay: AZ67 in vivo administration in Batten disease model; settings: 1 nmol/mouse intracerebroventricularly every 24 h, two months
Experimental: AZ67 for in vivo usage was dissolved in 20% (wt/vol) PEG200 in PBS to a 20 mM concentration. 4 groups were generated (4-6 animals/group), namely: WT-vehicle, CLN7Δex2-vehicle, WT-AZ67, CLN7Δex2-AZ67. The canula was inserted intracerebroventricularly at the age of 8 weeks and, after at least of 15 days of recovery, we injected the AZ67 at the dose identified previously (l nmol/mouse) every 24 h. The duration of the experiment was determined by the presence of hindlimb clasping the CLN7Δex2-control (vehicle), being this time two months. After this, the animals were perfused, and their brains dissected to be investigated by immunofluorescence and electron microscopy (EM).
Mice (5 months for AZ67 intraventricular injections; 3 months for mCAT expression approach) were anaesthetized by intraperitoneal injection of a mixture of xylazine hydrochloride (Rompun; Bayer) and ketamine hydrochloride/chlorbutol (Imalgene; Merial) (1:4) at 1 ml per kg body weight and then perfused intra-aortically with 0.9% NaCl followed by 5 ml p/g body weight of Somogyi (4% (wt/vol) paraformaldehyde, and 0.2% (vol/vol) picric acid, in 0.1 M PB; pH 7.4). After perfusion, brains were dissected out sagitally in two parts and post-fixed with Somogyi for 2 h at room temperature. Brain blocks were rinsed successively for 10 min, 30 min and 2 h with 0.1 M PB solution and cryoprotected in 10%, 20% and 30% (wt/vol) sucrose in PB sequentially, until they sank. After cryoprotection, 40-m-thick sagittal sections were obtained with a freezing-sliding cryostat (Leica). Sectioning of WT and Cln7Δex2 brains were performed under the same conditions and sessions. The sections were collected serially in a 12-well plate in 0.1 M PB, rinsed three times for 10 min in 0.1 M PB and used for subsequent immunohistochemistry and lipofuscin observation. The section-containing wells that were not used were kept in freezer mix (30% (vol/vol) polyethylene glycol, 30% (vol/vol) glycerol in 0.1 M PB) at −20° C. […]
Sections were examined with epifluorescence and the appropriate filter sets under an Operetta CLS high-content imaging system (PerkinElmer). […] Images were analysed with the Harmony software with PhenoLOGIC (PerkinElmer). Interest brain areas (cortex, hippocampus and cerebellum) were selected and subsequently quantified as mean intensity per area by using the ‘measure rectangle’ function, which represents the mean intensity of a channel per selected area.

Cc1noc(C)c1Cn1cc(C#N)c2cc(Oc3ccc(NC(=O)[C@@H]4CCCN4)cc3)ccc21 [AZ67, (2S)-N-[4-({3-cyano-1-[(3,5-dimethyl-1,2-oxazol-4-yl)methyl]-1H-indol-5-yl}oxy)phenyl]pyrrolidine-2-carboxamide]
loss of perinuclear mitochondria [1]: rectified the loss of perinuclear mitochondria | accumulation of SCMAS in the cortex (Cln7Δex2 mice): prevented | accumulation of lipofuscin in the cortex (Cln7Δex2 mice): prevented | accumulation of reactive astroglia in the cortex (Cln7Δex2 mice): prevented | hindlimb paralysis (Cln7Δex2 mice): prevented
